Test results taken from patent US10258599B2, “Compounds for use in the prevention or treatment of cancer” (SEMMELWEIS UNIVERSITY, priority 2014, dated 2019).

Experiments:
[1] = system: mouse colon carcinoma cells (C38); assay: Mouse colon carcinoma (C38) spleen inoculation, liver metastasis; format: in vivo; details: 0.0001 mg/kg s.c. daily from one week before inoculation, day 23, p<0.05
Procedure: In this study 30.000 mouse colon carcinoma cells (C38) were inoculated into the spleen of C57BI/6 mice and macroscopic liver metastasis observed on day 23 after inoculation. In the experiment a group of mice pretreated daily subcutaneously for one week with 0.0001 mg/kg BPAP prior to the inoculation of 30.000 cells/animal and further treated until the end of the experiment (23rd day) whereas the control animals have not received BPAP.

Daoy HTB-186 cell line = assay: MTT proliferation assay, Daoy medulloblastoma cells; format: cell-based, human; details: for proliferation of cultured medulloblastoma cells: monotherapy, nine concentrations 10^-14 to 10^-6 M, 72 hours
Procedure: (§1) Human medulloblastoma cell line, Daoy was purchased from ATCCC, UW-228 was obtained from the courtesy of Professor Silber (Univerity of Washington, Seattle, Wash., USA).
(§2) Daoy and UW-228-2 cell lines were maintained in culture medium (each 500 ml Minimum Essential Medium Eagle, Alpha Modification (M8042, Sigma, St Louis, USA) with 50 ml FCS (Gibco), 40 mg Gentamicin (Sandoz), 5 ml sodium-pyruvate (S8636, Sigma, St Louis, USA), 5 ml non-essential-amino acid solution (M7145, Sigma, St Louis, USA), 10 ml L-glutamin (Sigma, St Louis, USA) at 37° C. in humified 5% CO2.
(§3) In each well 3×10^3 Daoy or UW-228-2 cells were seeded in 96-well plates (Sarstedt), solved in 100 μl of its own medium with 10% FCS. 24 hours after seeding, cells were treated for 72 hours by drugs solved in further 100 μl medium. First, both cell lines were treated by (−)-BPAP and (−)-deprenil in monotherapy to determine its dose-effect curves in concentration of 10^−6, 10^−7, 10^−8, 10^−9, […], 10^−11, 10^−12, 10^−13 and 10^−14 M. In combined treatment 10^−3, 3.3×10^−4, […] and 3.7×10^−5 M of temozolomide (Schering Plough, USA) or 0.04, 0.2, 1, 5 μM of Cisplatin (Ebewe Pharma, Austria) or 0.04, 0.2, 1, 5 μM of etoposide (Ebewe Pharma, Austria) or 10^−7, 10^−6, 10^−5 and 10^−4 μM (UW228-2) or 0.001, 0.005, 0.025 and 0.125 μM (Daoy) of Vincristin (Richter Gedeon, Hungary) were applied in monotherapy or combined with 10^−13 or 10^−8 M of (−)-BPAP or (−)-deprenil.
(§4) Cell proliferation was evaluated by MTT (3-(4,5-Dimethylthiazol-2-yl)-2,5-diphenyltetrazolium bromide) assay (M5655, Sigma) after 72-hour treatment by the method described in manufacturer's protocol.

[2] = system: isolated locus coerulei of rats; assay: Norepinephrine release from isolated locus coerulei in organ bath; parameters: species or system rat; details: released within 20 min (FIG. 18)
Procedure: In this study (−)-BPAP was given to the organ bath of the quickly removed locus coerulei of rats. Eight organs were used for the analysis of each concentration. The amount of norepinephrine released within 20 min from the tissue in the presence of different concentrations of (−)-BPAP was measured according to Knoll and Miklya (1995) (Paired Student's t-test. *P<0.01, **P<0.001.)

UW-228-2 cell line = assay: MTT proliferation assay, UW-228-2 medulloblastoma cells; format: cell-based, human; details: for proliferation of cultured medulloblastoma cells: UW-228-2, monotherapy, nine concentrations 10^-14 to 10^-6 M, 72 hours
Procedure: as §1, §2, §3, §4

[3] = system: male Wistar rats (Charles River); assay: Longevity study: survival of rats treated 3 times a week s.c.; format: in vivo, rat
Procedure: Experiments were carried out on male Wistar rats (Charles River) weighing 250-350 g received from the breeding colony of Semmelweis University. The animals were kept in a 12-hour light-dark cycle and under condition of controlled temperature (22±2° C.) and relative humidity (55±5%). Room temperature and relative humidity was checked daily. The rats were maintained on standard laboratory chow and tap water ad libitum. All procedures conformed to the European Convention for the protection of vertebrate animals used for experimental and other scientific purposes. The study was approved by the Animal Ethics Committee of Semmelweis University, Budapest (permission number: 1810/003/2004)
The longevity study was performed on 200 male rats received from the breeding colony of the Semmelweis University. The rats were born at the end of February of 2010. After 2-month acclimation period the rats were divided randomly into 5 even groups. The longevity study started at the beginning of May 2010. Animals were observed until their natural deaths. The data in this study represent the changes observed until Oct. 31, 2012, since in the saline-treated group the last animal died on Oct. 31, 2012. As will be shown later a few rats in the enhancer-treated groups were still alive on Nov. 1, 2012.
During the longevity study 5 rats were housed together in polycarbonate cages (height: 18 cm; wide: 42 cm; length: 44 cm) with a stainless steel on the top. Cage bedding was renewed 3 times a week (Monday, Wednesday and Friday). Bodyweight was measured once every month. The treatment started at the end of the second month of their age.
To avoid the mixing of the groups and individuals, saline-treated rats were signed blue from 1 to 40; D-treated rats were signed green from 1 to 80 (1-40: rats treated with 0.1 mg/kg and 41-80: rats treated with 0.001 mg/kg); B-treated rats were signed black from 1 to 80 (1-40: rats treated with 0.05 mg/kg and 41-80: rats treated with 0.0001 mg/kg).
Significance in the performance between the groups in the shuttle box was evaluated by multi-factor analysis of variance (ANOVA). Significance regarding the span of time from tumor manifestation until death in rats and regarding aging related changes in bodyweight treated chronically with the enhancer substances was analyzed by One-way ANOVA. Statistical analysis of survival rate and tumor manifestation was performed by the Kaplan-Meier method.

CCCN[C@H](CCC)Cc1cc2ccccc2o1 [(−)-BPAP, (2R)-1-(1-benzofuran-2-yl)-N-propylpentane-2-amine]
number of macroscopic liver metastasis [1]: 2 tumors/liver | effectiveness of tumor-cell proliferation inhibiting agents in combination (Daoy HTB-186 cell line; 10^-13 or 10^-8 M combined with temozolomide, Cisplatin, etoposide or Vincristin): did not change the effectiveness | proliferation of cultured medulloblastoma cells (Daoy HTB-186 cell line): did not inhibit the proliferation | proliferation of cultured medulloblastoma cells (Daoy HTB-186 cell line; listed as BPAP): none of the applied concentrations did Deprenyl or BPAP influence the proliferation | concentration effect curve of norepinephrine release [2]: bi-modal, bell-shaped | effectiveness of tumor-cell proliferation inhibiting agents in combination (UW-228-2 cell line; UW-228-2, 10^-13 or 10^-8 M combined with temozolomide, Cisplatin, etoposide or Vincristin): did not change the effectiveness | proliferation of cultured medulloblastoma cells (UW-228-2 cell line): did not inhibit the proliferation | proliferation of cultured medulloblastoma cells (UW-228-2 cell line; listed as BPAP): none of the applied concentrations did Deprenyl or BPAP influence the proliferation | lifespan compared with saline-treated peers ([3]; 0.0001 mg/kg 3 times a week, P<0.05): lived significantly longer | month of age in which the first animal died ([3]; 0.0001 mg/kg s.c. 3 times a week, N=40): 16 month | rats remained alive to the end of the 32nd month ([3]; 0.0001 mg/kg, N=40, listed as BPAP): one and One | month of age in which the first animal died ([3]; 0.05 mg/kg s.c. 3 times a week, N=40): 14 month | lifespan compared with saline-treated peers ([3]; both doses of the longevity study (FIGS. 5-8)): significantly longer
